{
  "source": "the supplement of paper PMC10307832",
  "assay_in_all_cases": "relative viability (nuclei count vs DMSO), 5 days (fraction); higher = more cells survive",
  "key": {"Ponatinib + Pictilisib": {"compound": "Cc1ccc(C(=O)Nc2ccc(CN3CCN(C)CC3)c(C(F)(F)F)c2)cc1C#Cc1cnc2cccnn12 [Ponatinib] + CS(=O)(=O)N1CCN(Cc2cc3nc(-c4cccc5[nH]ncc45)nc(N4CCOCC4)c3s2)CC1 [Pictilisib] (partner 1 µM)", "outline": "(§1)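 Values are medians from duplicate plates. Each reflects relative viability, defined as the nuclei count of treated wells over that of vehicle wells. Lung cancer cell lines in 1536-well plates were pin-tool dosed one day after seeding with one drug alone or with a fixed anchor-drug dose plus five library-drug doses (not always all listed) in √10 steps, then fixed, stained and imaged at 4× after 5 days.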"}, "Pazopanib + Linsitinib": {"compound": "Cc1ccc(Nc2nccc(N(C)c3ccc4c(C)n(C)nc4c3)n2)cc1S(N)(=O)=O [Pazopanib] + C[C@]1(O)C[C@@H](c2nc(-c3ccc4ccc(-c5ccccc5)nc4c3)c3c(N)nccn32)C1 [Linsitinib] (partner 1 µM)", "outline": "as §1"}, "Pazopanib + Vorinostat": {"compound": "Cc1ccc(Nc2nccc(N(C)c3ccc4c(C)n(C)nc4c3)n2)cc1S(N)(=O)=O [Pazopanib] + O=C(CCCCCCC(=O)Nc1ccccc1)NO [Vorinostat] (partner 1 µM)", "outline": "as §1"}, "Pazopanib + Olaparib": {"compound": "Cc1ccc(Nc2nccc(N(C)c3ccc4c(C)n(C)nc4c3)n2)cc1S(N)(=O)=O [Pazopanib] + O=C(c1cc(Cc2n[nH]c(=O)c3ccccc23)ccc1F)N1CCN(C(=O)C2CC2)CC1 [Olaparib] (partner 8 µM)", "outline": "as §1"}},
  "data": [
    {"cell line": "UMC-11", "values": [
      {"measurement": "relative viability", "setting": "Ponatinib + Pictilisib; first compound 0.002 µM", "result": 0.809},
      {"measurement": "relative viability", "setting": "Ponatinib + Pictilisib; first compound 0.006325 µM", "result": 0.933},
      {"measurement": "relative viability", "setting": "Ponatinib + Pictilisib; first compound 0.06325 µM", "result": 0.766},
      {"measurement": "relative viability", "setting": "Ponatinib + Pictilisib; first compound 0.2 µM", "result": 0.831},
      {"measurement": "relative viability", "setting": "Pazopanib + Linsitinib; first compound 0.01 µM", "result": 0.974},
      {"measurement": "relative viability", "setting": "Pazopanib + Linsitinib; first compound 0.03162 µM", "result": 1.06},
      {"measurement": "relative viability", "setting": "Pazopanib + Linsitinib; first compound 0.1 µM", "result": 1.1},
      {"measurement": "relative viability", "setting": "Pazopanib + Linsitinib; first compound 0.3162 µM", "result": 1},
      {"measurement": "relative viability", "setting": "Pazopanib + Linsitinib; first compound 1 µM", "result": 1.11},
      {"measurement": "relative viability", "setting": "Pazopanib + Vorinostat; first compound 0.01 µM", "result": 0.353},
      {"measurement": "relative viability", "setting": "Pazopanib + Vorinostat; first compound 0.03162 µM", "result": 0.306},
      {"measurement": "relative viability", "setting": "Pazopanib + Vorinostat; first compound 0.1 µM", "result": 0.368},
      {"measurement": "relative viability", "setting": "Pazopanib + Vorinostat; first compound 0.3162 µM", "result": 0.371},
      {"measurement": "relative viability", "setting": "Pazopanib + Vorinostat; first compound 1 µM", "result": 0.446},
      {"measurement": "relative viability", "setting": "Pazopanib + Olaparib; first compound 0.01 µM", "result": 0.425},
      {"measurement": "relative viability", "setting": "Pazopanib + Olaparib; first compound 0.03162 µM", "result": 0.359},
      {"measurement": "relative viability", "setting": "Pazopanib + Olaparib; first compound 0.1 µM", "result": 0.41},
      {"measurement": "relative viability", "setting": "Pazopanib + Olaparib; first compound 0.3162 µM", "result": 0.509},
      {"measurement": "relative viability", "setting": "Pazopanib + Olaparib; first compound 1 µM", "result": 0.34}
    ]}
  ]
}
